Measurements from ChEMBL document CHEMBL2086335, “Three new 12-carbamoylated streptothricins from Streptomyces sp. I08A 1776” (2012).
Converted amounts (≈) assume the structure as drawn.

Columns and labels:
Type in all cases: functional
[1] = tested on: Mycobacterium tuberculosis; assay: Antibacterial activity against drug-resistant Mycobacterium tuberculosis 164 by microbroth dilution method
[2] = tested on: Mycobacterium tuberculosis; assay: Antibacterial activity against drug-resistant Mycobacterium tuberculosis 926 by microbroth dilution method
[3] = tested on: Mycobacterium tuberculosis; assay: Ratio of isoniazid MIC to compound MIC for extensively drug-resistant Mycobacterium tuberculosis
[4] = tested on: Mycobacterium tuberculosis; assay: Ratio of rifampicin MIC to compound MIC for extensively drug-resistant Mycobacterium tuberculosis

SMILES	MIC [1] [µg/mL]	MIC [2] [µg/mL]	Ratio [3]	Ratio [4]
NCCC[C@H](N)CC(=O)NCCC[C@H](N)CC(=O)N[C@@H]1[C@H](O)[C@@H](O)[C@@H](COC(N)=O)O[C@H]1/N=C1\N[C@@H]2[C@H](O)CNC(=O)[C@H]2N1	8 (≈ 12.7 µM)	8 (≈ 12.7 µM)		
NNC(=O)c1ccncc1 [ISONIAZID]	4 (≈ 29.2 µM)	4 (≈ 29.2 µM)		
CO[C@H]1/C=C/O[C@@]2(C)Oc3c(C)c(O)c4c(O)c(c(/C=N/N5CCN(C)CC5)c(O)c4c3C2=O)NC(=O)/C(C)=C\C=C\[C@H](C)[C@H](O)[C@@H](C)[C@@H](O)[C@@H](C)[C@H](OC(C)=O)[C@@H]1C [RIFAMPIN]	32 (≈ 38.9 µM)	16 (≈ 19.4 µM)		
NCCC[C@H](N)CC(=O)NCCC[C@H](N)CC(=O)N[C@@H]1[C@H](O)[C@@H](OC(N)=O)[C@@H](CO)O[C@H]1NC1=N[C@@H]2C(=O)NC[C@@H](O)[C@H]2N1 [STREPTOTHRICIN E]	0.5 (≈ 0.793 µM)	0.25 (≈ 0.396 µM)	8	8
